Tests used:
[1] = system: pERK in HCT116 cells; assay: Inhibition of KRas phosphorylation of ERK (Cisbio HTRF pERK assay); conditions: Homo sapiens, HCT-116, read-out: Inhibition (HTRF IC50) of KRas-mediated Phosphorylation of ERK, HCT116
[2] = system: pERK in ASPC1 cells; assay: as above; conditions: Homo sapiens, ASPC1, read-out: Inhibition (HTRF IC50) of KRas-mediated Phosphorylation of ERK, AsPC-1
[3] = system: pERK in PSN1 cells; assay: as above; conditions: Homo sapiens, PSN1, 3 h, read-out: Inhibition (HTRF IC50) of KRas-mediated Phosphorylation of ERK, PSN1
Description: To harvest cells from flask using 0.05% Trypsin/EDTA solution. Add 10 mL of media to stop trypsinizing. Pipette the cells into a conical bottom 50 mL centrifuge tube and centrifuge 5 min×1000 rpm. • 2. Re-suspend the cell pellet in media, take a cell count, and then adjust the cell density using fresh media. • 3. Seed 6,000 cells into cell culture plate with 50 μL media. […] Incubate cell plate overnight in a 37° C., 5% CO2 incubator. • Compound titrations • 1. Use Tecan to complete the compound addition. Compounds start from 10 uM top, 3-fold dilution, and 10 doses. The final DMSO concentration is 0.8%. Dispensed 0.2 uM Trametinib as Min control. • 2. Incubate cell plate for 3 hrs in the incubator. • Detection with cisbio pERK HTRF kit • 1. […] At the end of the compound treatment, flick-off the media. • 3. Add 35 μL of lysis buffer per well using a Multidrop Combi. Then place on a plate agitator shaking at 300 rpm at 4° C. for 40 mins. • 4. Make up the HTRF antibody buffer. For each assay plate, mix 50 μL of d2-conjugate antibody with 950 μL of detection buffer. Similarly, mix 50 μL of Cryptate antibody with 950 μL of detection buffer. Then mix the two diluted antibodies together. • 5. Dispense 3.4 μL the antibody buffer to wells of an empty assay plate. Seal the plate and centrifuge plate 30 sec×1000 rpm. • 6. At the end of the 4° C. lysis, centrifuge the lysate plates 3 mins×1500 rpm. • 7. Use the Bravo to transfer 13.6 μL of lysate from cell culture plate to assay plate.
Then incubate assay plate for 2 hrs at room temperature. […] At the end of incubation, read plate on the Envision after centrifuging plate 30 sec× • 1000 rpm.

[4] = system: pERK in MKN1 cells; assay: as above; conditions: Homo sapiens, MKN-1, 3 h, read-out: Inhibition (HTRF IC50) of KRas-mediated Phosphorylation of ERK, MKN1
[5] = target: KRas G12D (Homo sapiens, UniProt P01116, G12D); assay: biochemical;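 also: TR-FRET displacement binding assay on KRas, read after a one-hour incubation at room temperature, IC50 fitted from percent-of-control values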
Description: (§1) The ability of a compound to bind to KRas was measured using a TR-FRET displacement assay. […] After a 60-minute incubation at room temperature, the reaction was measured using a BMG LABTECH CLARIO star Plus via TR-FRET. […] The POC values were fit to a 4-parameter IC50 equation and the IC50 value reported.

[6] = target: KRas G12V (Homo sapiens, UniProt P01116, G12V); assay: biochemical;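 also: KRas binding measured by TR-FRET displacement at room temperature, IC50 fitted from percent of control values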
Description: as §1

[7] = system: pERK in H727 cells; assay: Inhibition of KRas phosphorylation of ERK (Cisbio HTRF pERK assay); conditions: Homo sapiens, NCI-H727, read-out: Inhibition (HTRF IC50) of KRas-mediated Phosphorylation of ERK, H727
[8] = target: KRas G12R (Homo sapiens, UniProt P01116, G12R); assay: biochemical;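 also: TR-FRET displacement assay of compound binding to KRas, read after one hour at room temperature, potency from a four-parameter fit of percent-of-control values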
KRas G12R, sequence (P01116 1-169 isoform P01116-2 G12R): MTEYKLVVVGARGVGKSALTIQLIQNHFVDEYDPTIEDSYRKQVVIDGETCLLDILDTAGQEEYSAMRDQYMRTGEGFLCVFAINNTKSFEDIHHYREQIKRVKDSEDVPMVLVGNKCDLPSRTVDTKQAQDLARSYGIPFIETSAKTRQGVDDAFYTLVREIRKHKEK
Description: as §1

KRas G12V, sequence (P01116 1-169 isoform P01116-2 G12V): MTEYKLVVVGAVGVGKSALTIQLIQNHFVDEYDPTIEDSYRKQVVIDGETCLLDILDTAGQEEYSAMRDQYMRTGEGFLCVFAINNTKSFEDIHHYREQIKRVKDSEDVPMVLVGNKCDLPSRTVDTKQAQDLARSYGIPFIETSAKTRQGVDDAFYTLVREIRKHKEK
KRas G12D, sequence (P01116 1-169 isoform P01116-2 G12D): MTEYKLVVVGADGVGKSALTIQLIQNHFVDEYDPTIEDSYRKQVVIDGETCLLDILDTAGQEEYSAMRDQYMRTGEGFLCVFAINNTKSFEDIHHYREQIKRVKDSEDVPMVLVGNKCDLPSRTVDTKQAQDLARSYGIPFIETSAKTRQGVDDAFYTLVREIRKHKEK

| SMILES | IC50 [1] [nM] | IC50 [2] [nM] | IC50 [3] [nM] | IC50 [4] [nM] | IC50 [5] [nM] | IC50 [6] [nM] | IC50 [7] [nM] | IC50 [8] [nM] |
| --- | --- | --- | --- | --- | --- | --- | --- | --- |
| OCC1COCCN(c2nc(OC[C@@]34CCCN3C[C@H](F)C4)nc3c(F)c(-c4cc(O)cc5ccc(F)c(Br)c45)ncc23)C1 (stereo partly drawn) [Example 401, 5-bromo-6-fluoro-4-(8-fluoro-2-(((2R,7aS)-2-fluorohexahydro-1H-pyrrolizin-7a-yl)methoxy)-4-(6-(hydroxymethyl)-1,4-oxazepan-4-yl)pyrido[4,3-d]pyrimidin-7-yl)naphthalen-2-ol] | 1150 | 162 | 9960 | 82 | ≤ 2 | ≤ 2 | 253 | ≤ 2 |
| O=C1NC(=O)C2CN(c3nc(OC[C@@]45CCCN4C[C@H](F)C5)nc4c(F)c(-c5cc(O)cc6ccc(F)c(Br)c56)ncc34)CC12 (stereo partly drawn) [Example 404, 5-(7-(8-bromo-7-fluoro-3-hydroxynaphthalen-1-yl)-8-fluoro-2-(((2R,7aS)-2-fluorohexahydro-1H-pyrrolizin-7a-yl)methoxy)pyrido[4,3-d]pyrimidin-4-yl)tetrahydropyrrolo[3,4-c]pyrrole-1,3(2H,3aH)-dione] | 1380 | 136 | ≥ 10000 | 55 | ≤ 2 | ≤ 2 | 822 | ≤ 2 |
| CCc1c(F)ccc2cc(O)cc(-c3ncc4c(N5CCCC(N6CCCS6(=O)=O)C5)nc(OC[C@@]56CCCN5C[C@H](F)C6)nc4c3F)c12 (stereo partly drawn) [Example 348, 2-(1-(7-(8-ethyl-7-fluoro-3-hydroxynaphthalen-1-yl)-8-fluoro-2-(((2R,7aS)-2-fluorotetrahydro-1H-pyrrolizin-7a(5H)-yl)methoxy)pyrido[4,3-d]pyrimidin-4-yl)piperidin-3-yl)isothiazolidine 1,1-dioxide] | 245 | 275 | ≥ 10000 | 7 | 6 | 3 | 273 | ≤ 2 |

The remaining lines, values ahead:

| IC50 [1] [nM] | IC50 [2] [nM] | IC50 [3] [nM] | IC50 [4] [nM] | IC50 [5] [nM] | IC50 [6] [nM] | IC50 [7] [nM] | IC50 [8] [nM] | SMILES |
| --- | --- | --- | --- | --- | --- | --- | --- | --- |
| 576 | 345 | 4100 | 60 | ≤ 2 | ≤ 2 | 782 | ≤ 2 | CCc1c(F)ccc2cc(O)cc(-c3ncc4c(N5CCCC6(C5)NC(=O)NC6=O)nc(OCC5(CN(C)C)CC5)nc4c3F)c12 (stereo not drawn) [Example 359, 7-(2-((1-((dimethylamino)methyl)cyclopropyl)methoxy)-7-(8-ethyl-7-fluoro-3-hydroxynaphthalen-1-yl)-8-fluoropyrido[4,3-d]pyrimidin-4-yl)-1,3,7-triazaspiro[4.5]decane-2,4-dione] |
| 1320 | 472 | ≥ 10000 | 86 | ≤ 2 | 3 | 1040 | ≤ 2 | CCc1c(F)ccc2cc(O)cc(-c3ncc4c(N5CCCn6nc(CO)cc6C5)nc(OC[C@@]56CCCN5C[C@H](F)C6)nc4c3F)c12 [Example 341, 5-ethyl-6-fluoro-4-(8-fluoro-2-(((2R,7aS)-2-fluorohexahydro-1H-pyrrolizin-7a-yl)methoxy)-4-(2-(hydroxymethyl)-7,8-dihydro-4H-pyrazolo[1,5-a][1,4]diazepin-5(6H)-yl)pyrido[4,3-d]pyrimidin-7-yl)naphthalen-2-ol] |
| 797 | 241 | ≥ 10000 | 209 | 30 | 8 | 334 | 8 | CCc1c(F)ccc2cc(O)cc(-c3ncc4c(N5CC6CCC(C6)C5)nc(OC[C@@]56CCCN5C[C@H](F)C6)nc4c3F)c12 [Example 350, 4-(4-(3-azabicyclo[3.2.I]octan-3-yl)-8-fluoro-2-(((2R,7aS)-2-fluorohexahydro-1H-pyrrolizin-7a-yl)methoxy)pyrido[4,3-d]pyrimidin-7-yl)-5-ethyl-6-fluoronaphthalen-2-ol] |
